Here are results for three compounds from US6825206B1 (priority 2000, dated 2004).

One experiment deals with U937 leukemia cell line. As to the kind of experiment: toxicity against U937 leukemia cell line. The experiment is classed as cell-based, human.
For a further experiment, the target named is T1, human topI (Homo sapiens, UniProt P11387).
T1 sequence (P11387 1-765): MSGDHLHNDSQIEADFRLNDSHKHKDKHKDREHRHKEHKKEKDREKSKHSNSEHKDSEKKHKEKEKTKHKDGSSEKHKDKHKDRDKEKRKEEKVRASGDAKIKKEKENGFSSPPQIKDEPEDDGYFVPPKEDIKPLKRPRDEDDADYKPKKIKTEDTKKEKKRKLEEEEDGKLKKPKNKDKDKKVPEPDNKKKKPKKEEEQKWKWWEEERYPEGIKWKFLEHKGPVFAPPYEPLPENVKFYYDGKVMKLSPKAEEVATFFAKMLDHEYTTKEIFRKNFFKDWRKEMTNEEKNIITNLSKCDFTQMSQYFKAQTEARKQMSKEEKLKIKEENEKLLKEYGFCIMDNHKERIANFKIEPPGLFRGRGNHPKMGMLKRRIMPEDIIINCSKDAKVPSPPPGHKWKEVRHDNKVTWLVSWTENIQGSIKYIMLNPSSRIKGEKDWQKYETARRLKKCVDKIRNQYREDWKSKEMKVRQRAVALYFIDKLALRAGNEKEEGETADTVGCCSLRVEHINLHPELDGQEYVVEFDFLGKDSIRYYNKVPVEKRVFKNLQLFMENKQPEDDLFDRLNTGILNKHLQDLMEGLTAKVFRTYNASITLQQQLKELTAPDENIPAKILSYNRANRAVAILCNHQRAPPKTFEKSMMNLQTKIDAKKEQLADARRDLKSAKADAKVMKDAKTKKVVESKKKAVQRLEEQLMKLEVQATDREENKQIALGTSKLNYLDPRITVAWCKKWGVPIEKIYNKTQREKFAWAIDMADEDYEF
The class given is biochemical. The following applies: band of nicked DNA increases with concentration; FIG. 4.

Experiment [1] deals with T2, camptothecin-topo I-DNA complex (Homo sapiens, UniProt P11387).
T2 sequence (P11387 1-765): T1 sequence (P11387 1-765)
The class given is biochemical. Particulars: after addition of NaCl; FIG. 5.
From the text: In this assay, nicked DNA is first formed by the action of the camptothecins. Addition of NaCl perturbs the equilibrium and destabilizes the camptothecin-topo I-DNA complex. The persistence of the nicked DNA under these conditions indicates increased stability of the cleavable complex.

From the text for U937 leukemia cell line: Untreated P388 WT (wild type) cells show dark wells where cells are viable.
From the text for human topI: DNA cleavage produced by human topI in pSK DNA;
The nicked DNA migrates to position 2 on these gels.

Turning to `CC[C@@]1(O)C(=O)OCc2c1cc1n(c2=O)Cc2c-1nc1cc3c(cc1c2CCl)OCO3` [CMMDC, 7-chloromethyl-10,11-methylenedioxy-20(S)-camptothecin], inhibition in the experiment with U937 leukemia cell line was half-maximal at 7 nM (IC50). Regarding `CC[C@@]1(O)C(=O)OCc2c1cc1n(c2=O)Cc2cc3ccccc3nc2-1` [CPT, camptothecin], the “induction of nicked DNA” value on human topI is reported as “induce nicked DNA”. Further, the “time after which nicked DNA is difficult to detect” value in experiment [1] was 3 min. Take `CC[C@@]1(O)C(=O)OCc2c1cc1n(c2=O)Cc2cc3cc4c(cc3nc2-1)OCO4` [MDC, 10,11-methylenedioxy-20(S)-camptothecin]: the “induction of nicked DNA” value at human topI was “induce nicked DNA”. Besides, the “persistence of nicked DNA / stabilization of the cleavable complex” value in experiment [1] is “show nicked DNA for longer periods of time”.
